Consider 35 molecules from publication PMC9968098, “Towards Arginase Inhibition: Hybrid SAR Protocol for Property Mapping of Chlorinated N-arylcinnamamides” (International Journal of Molecular Sciences, 2023).

SMILES strings stand for the structures. Read-outs that look alike come from different tables or passages of the source. Where only a bound is given, the exact number is not on record here.

On the set-up of data set [1]: method as in PMID 35328580. To be noted: experimentally determined lipophilicity, RP-HPLC; cited from earlier work.
Data set [2] has as its system P. falciparum 3D7/MRA-102. The experiment in a line: In vitro antiplasmodial activity (parasite growth, 48 h). It is filed as cell-based. To be noted: Plasmodium falciparum, read-out: Pf IC50 ± SD. The method, then: The following reagent was obtained through BEI Resources, NIAID, NIH: Plasmodium falciparum, strain 3D7, MRA-102, contributed by Daniel J. Carucci. Based on a modified procedure by Trager and Jensen, asexual erythrocytic stages of Pf were continuously maintained through in vitro culture. The chloroquine-sensitive strain is cultured thanks to human red blood cells (A+) and a culture medium mainly composed of RPMI 1640 (Gibco, Fisher Scientific, Loughborough, UK) containing NaHCO3 (32 mM), HEPES (25 mM), and L-glutamine. The medium was supplemented with 1.76 g/L of glucose (Sigma-Aldrich, […], Belgium), […] of hypoxanthine (Sigma-Aldrich), 100 mg/L of gentamycin (Gibco, Fisher Scientific) and 10% human pooled serum (A+), as previously described. Solutions of pure products were prepared in DMSO at 10 mg/mL. As DMSO is recognized as toxic for parasites, the highest concentration of solvent to which they were exposed was 1%. Thus, primary solutions were diluted in a culture medium to reach 100 μg/mL in the first row of a 96-well plate. Therefore, each test sample was applied in a series of eight 2-fold dilutions and tested in triplicate. The assay was performed with 2% parasitaemia and 1% haematocrit. After 48 h of incubation, plates were frozen at -20 °C for 12 h and parasite growth was quantified according to the methods described by Makler et al.. Chloroquine (Sigma-Aldrich) was used as positive standards in all experiments, with initial concentrations at 100 ng/mL. Infected and uninfected red blood cells (RBC) were used as positive (100% growth) and negative controls (0% growth). Consequently, comparison between infected erythrocytes and samples allowed us to estimate the growth inhibition. IC50 values were calculated from linear regression.

Data set [3] concerns human monocytic leukemia cell line THP-1. On the set-up: method as in PMID 35328580. To be noted: cell viability, THP-1 cells, n = 3; cited from earlier work.
Where [4] appears, read: chloroquine-sensitive strain 3D7/MRA-102, 48 h incubation, n = 3.

The term IC50 denotes the concentration needed to halve the response being measured. As to `O=C(/C=C/c1ccc(Cl)cc1)Nc1ccccc1` [1a], the logk in data set [1] is listed as 0.4490. The results for the IC50 in data set [2] (setting [4]) and in data set [3] were more than 30 µM and more than 10 µM, respectively.
`O=C(/C=C/c1ccc(Cl)cc1)Nc1ccccc1F` [1b]: in data set [1], the logk is 0.6459. Further, the IC50 in data set [2] (setting [4]) was more than 30 µM; in data set [3], more than 10 µM.
Regarding `O=C(/C=C/c1ccc(Cl)cc1)Nc1cccc(F)c1` [1c], the logk in data set [1] is given as 0.7859. For the same molecule, the IC50 is 6.9 ± 2.1 µM in data set [2] (setting [4]) and more than 10 µM in data set [3].
For the molecule `O=C(/C=C/c1ccc(Cl)cc1)Nc1ccc(F)cc1` [1d], the logk in data set [1] is listed as 0.7808. The IC50 in data set [2] (setting [4]) is more than 30 µM; in data set [3], more than 10 µM.
Take `O=C(/C=C/c1ccc(Cl)cc1)Nc1ccccc1Cl` [1e]: in data set [1], the logk was 0.5241. In addition, the results for the IC50 in data set [2] (setting [4]) and in data set [3] were more than 30 µM and more than 10 µM, respectively.
As for `O=C(/C=C/c1ccc(Cl)cc1)Nc1cccc(Cl)c1` [1f], the logk in data set [1] is reported as 0.6192. Also, the IC50 in data set [2] (setting [4]) was 12.7 ± 2.1 µM; in data set [3], more than 10 µM.
Consider `O=C(/C=C/c1ccc(Cl)cc1)Nc1ccc(Cl)cc1` [1g], for which the logk in data set [1] is 0.5598. In addition, the IC50 in data set [2] (setting [4]) is 29.2 ± 2.4 µM; in data set [3] it was more than 10 µM.
Consider `O=C(/C=C/c1ccc(Cl)cc1)Nc1ccccc1C(F)(F)F` [1h], for which the logk in data set [1] is given as 0.5506. The IC50 in data set [2] (setting [4]) is more than 30 µM; in data set [3], more than 10 µM.
With `O=C(/C=C/c1ccc(Cl)cc1)Nc1cccc(C(F)(F)F)c1` [1i], the logk in data set [1] is 0.8612. Further, the figures for the IC50 in data set [2] (setting [4]) and in data set [3] were 14.8 ± 3.1 µM and more than 10 µM, respectively.
Regarding `O=C(/C=C/c1ccc(Cl)cc1)Nc1ccc(C(F)(F)F)cc1` [1j], the logk in data set [1] is listed as 0.9078. In addition, the IC50 in data set [2] (setting [4]) was more than 30 µM; in data set [3] it was more than 10 µM.
For `O=C(/C=C/c1ccc(Cl)cc1)Nc1ccc(F)cc1F` [1k], the logk in data set [1] is 0.5746. Also, the IC50 in data set [2] (setting [4]) was 11 ± 2.1 µM; in data set [3], more than 10 µM.
`O=C(/C=C/c1ccc(Cl)cc1)Nc1cc(F)cc(F)c1` [1l]: the logk in data set [1] is on record as 0.8054. The IC50 in data set [2] (setting [4]) is 5.2 ± 0.9 µM; in data set [3], more than 10 µM.
For the molecule `O=C(/C=C/c1ccc(Cl)cc1)Nc1ccc(Cl)cc1Cl` [1m], the logk in data set [1] is reported as 0.9665. Also, the results for the IC50 in data set [2] (setting [4]) and in data set [3] were 4.6 ± 1.8 µM and more than 10 µM, respectively.
In the case of `O=C(/C=C/c1ccc(Cl)cc1)Nc1cc(Cl)ccc1Cl` [1n], the logk in data set [1] is 0.9507. For the same molecule, the results for the IC50 in data set [2] (setting [4]) and in data set [3] were more than 30 µM and more than 10 µM, respectively.
Turning to `O=C(/C=C/c1ccc(Cl)cc1)Nc1cc(Cl)cc(Cl)c1` [1o], the logk in data set [1] is given as 1.1899. The results for the IC50 in data set [2] (setting [4]) and in data set [3] were 4.4 ± 1.8 µM and more than 10 µM, respectively.
`O=C(/C=C/c1ccc(Cl)cc1)Nc1cc(C(F)(F)F)cc(C(F)(F)F)c1` [1p, (2E)-N-[3,5-bis(trifluoromethyl)phenyl]-3-(4-chlorophenyl)prop-2-enamide]: the logk in data set [1] was 1.3064. The IC50 in data set [2] (setting [4]) is 2.5 ± 0.9 µM; in data set [3] it was more than 10 µM.
For `O=C(/C=C/c1ccc(Cl)cc1)Nc1ccc(OC(F)(F)F)cc1Br` [1q], the logk in data set [1] was 1.0278. For the same molecule, the IC50 in data set [2] (setting [4]) is 24.8 ± 2.5 µM; in data set [3], more than 10 µM.
In the case of `O=C(/C=C/c1ccc(Cl)c(Cl)c1)Nc1ccccc1` [2a], the logk in data set [1] is reported as 0.6199. The results for the IC50 in data set [2] (setting [4]) and in data set [3] were 21.4 ± 2.6 µM and more than 10 µM, respectively.
On to `O=C(/C=C/c1ccc(Cl)c(Cl)c1)Nc1ccccc1F` [2b], for which, in data set [1], the logk is 0.7764. Moreover, the IC50 was more than 30 µM in data set [2] (setting [4]) and more than 10 µM in data set [3].
For the molecule `O=C(/C=C/c1ccc(Cl)c(Cl)c1)Nc1cccc(F)c1` [2c], in data set [1], the logk is given as 0.9071. The figures for the IC50 in data set [2] (setting [4]) and in data set [3] were 3.4 ± 1 µM and more than 10 µM, respectively.
Regarding `O=C(/C=C/c1ccc(Cl)c(Cl)c1)Nc1ccc(F)cc1` [2d], the logk in data set [1] is 0.9009. Further, the IC50 in data set [2] (setting [4]) is 14.1 ± 3.1 µM; in data set [3], more than 10 µM.
`O=C(/C=C/c1ccc(Cl)c(Cl)c1)Nc1ccccc1Cl` [2e]: the logk in data set [1] is reported as 0.6488. Moreover, the IC50 in data set [2] (setting [4]) is more than 30 µM; in data set [3] it was more than 10 µM.
`O=C(/C=C/c1ccc(Cl)c(Cl)c1)Nc1cccc(Cl)c1` [2f]: the logk in data set [1] is 0.7404. Also, the figures for the IC50 in data set [2] (setting [4]) and in data set [3] were 10.5 ± 2 µM and more than 10 µM, respectively.
Regarding `O=C(/C=C/c1ccc(Cl)c(Cl)c1)Nc1ccc(Cl)cc1` [2g], the logk in data set [1] is 0.6786. The IC50 in data set [2] (setting [4]) was 7.9 ± 1.7 µM; in data set [3], more than 10 µM.
Regarding `O=C(/C=C/c1ccc(Cl)c(Cl)c1)Nc1ccccc1C(F)(F)F` [2h], the logk in data set [1] is 0.6836. Further, the IC50 was more than 30 µM in data set [2] (setting [4]) and more than 10 µM in data set [3].
As to `O=C(/C=C/c1ccc(Cl)c(Cl)c1)Nc1cccc(C(F)(F)F)c1` [2i], the logk in data set [1] is on record as 0.9873. The results for the IC50 in data set [2] (setting [4]) and in data set [3] were 14.2 ± 2.3 µM and more than 10 µM, respectively.
As for `O=C(/C=C/c1ccc(Cl)c(Cl)c1)Nc1ccc(C(F)(F)F)cc1` [2j], in data set [1], the logk was 1.0364. Further, the IC50 in data set [2] (setting [4]) was 16 ± 2.5 µM; in data set [3] it was more than 10 µM.
`O=C(/C=C/c1ccc(Cl)c(Cl)c1)Nc1ccc(F)cc1F` [2k, (2E)-3-(3,4-dichlorophenyl)-N-(2,4-difluoro-phenyl)prop-2-enamide]: in data set [1], the logk was 0.6989. Besides, the IC50 was 1.9 ± 0.06 µM in data set [2] (setting [4]) and more than 10 µM in data set [3].
`O=C(/C=C/c1ccc(Cl)c(Cl)c1)Nc1cc(F)cc(F)c1` [2l, (2E)-3-(3,4-dichlorophenyl)-N-(3,5-difluoro-phenyl)prop-2-enamide]: the logk in data set [1] is 0.9298. Also, the IC50 in data set [2] (setting [4]) is 1.8 ± 0.08 µM; in data set [3] it was more than 10 µM.
In the case of `O=C(/C=C/c1ccc(Cl)c(Cl)c1)Nc1ccc(Cl)cc1Cl` [2m], in data set [1], the logk is 1.0932. The IC50 in data set [2] (setting [4]) was 3.4 ± 0.9 µM; in data set [3], more than 10 µM.
`O=C(/C=C/c1ccc(Cl)c(Cl)c1)Nc1cc(Cl)ccc1Cl` [2n]: the logk in data set [1] is on record as 1.0840. For the same molecule, the values for the IC50 in data set [2] (setting [4]) and in data set [3] were more than 30 µM and more than 10 µM, respectively.
On to `O=C(/C=C/c1ccc(Cl)c(Cl)c1)Nc1cc(Cl)cc(Cl)c1` [2o], for which the logk in data set [1] is 1.3043. Also, the IC50 in data set [2] (setting [4]) is 3.8 ± 1.1 µM; in data set [3] it was more than 10 µM.
On to `O=C(/C=C/c1ccc(Cl)c(Cl)c1)Nc1cc(C(F)(F)F)cc(C(F)(F)F)c1` [2p, (2E)-N-[3,5-bis(trifluoromethyl)phenyl]-3-(3,4-dichloro-phenyl)prop-2-enamide], for which the logk in data set [1] is recorded as 1.4731. For the same molecule, the values for the IC50 in data set [2] (setting [4]) and in data set [3] were 1.6 ± 0.07 µM and more than 10 µM, respectively.
Consider `O=C(/C=C/c1ccc(Cl)c(Cl)c1)Nc1ccc(OC(F)(F)F)cc1Br` [2q], for which the logk in data set [1] is reported as 1.2065. Besides, the IC50 in data set [2] (setting [4]) was 23 ± 2.7 µM; in data set [3] it was more than 10 µM.
As to `CCN(CC)CCCC(C)Nc1ccnc2cc(Cl)ccc12` (stereo not shown) [CQ, chloroquine, reference compound], in data set [2] (3D7, 48 h), the IC50 worked out at 0.5 ± 0.2 µM.
